From DBAASP
≈ marks a conversion by molar mass, not a printed value. Where “and” joins values, the source holds several entries; their conditions need not be identical. Equal entries are not always repeated. One block for each compound: values may come before it.

Key:
Assay in all cases: ≥ marks a high value that may be exact or a test limit, other limits are often not marked, values filed in µg/mL are converted to µM
[1] = tested on: Escherichia coli ATCC 25922
[2] = tested on: Bacillus subtilis ATCC 6633
[3] = tested on: Saccharomyces cerevisiae CGMCC 2.3973
[4] = tested on: Pseudomonas aeruginosa ATCC 27853
[5] = tested on: Staphylococcus aureus ATCC 25923
[6] = tested on: Staphylococcus aureus ATCC 29213
[7] = tested on: Enterococcus faecalis ATCC 29212
[8] = tested on: Candida albicans ATCC 10231
[9] = tested on: Aspergillus brasiliensis ATCC 16404
Streptococcus sanguinis = tested on: Streptococcus sanguinis
Staphylococcus aureus = tested on: Staphylococcus aureus
[10] = tested on: Bacillus cereus ATCC 10876
[11] = tested on: Streptococcus iniae KCTC 3657
[12] = tested on: Salmonella enterica subsp. enterica serovar Typhimurium ATCC 14028
[13] = tested on: Klebsiella pneumoniae ATCC 700603
[14] = tested on: Pseudomonas aeruginosa ATCC 10145
[15] = tested on: Staphylococcus aureus ATCC 27660
Escherichia coli D31 = tested on: Escherichia coli D31
[16] = tested on: Staphylococcus aureus CCARM 3095
[17] = tested on: Staphylococcus epidermidis KCTC 1917
[18] = tested on: Pseudomonas aeruginosa CCARM 2109
[19] = tested on: Pseudomonas aeruginosa KCTC 1637
[20] = tested on: Enterococcus faecium ATCC 51559
[21] = tested on: Pseudomonas aeruginosa CCARM 2095
[22] = tested on: Staphylococcus aureus CCARM 3089
[23] = tested on: Salmonella typhimurium KCTC 1926
[24] = tested on: Bacillus subtilis KCTC 3068
[25] = tested on: Staphylococcus aureus CCARM 3090
[26] = tested on: Escherichia coli KCTC 1682
Escherichia coli BW25113 = tested on: Escherichia coli BW25113
[27] = tested on: Acinetobacter baumannii ATCC 19606
[28] = tested on: Escherichia coli BW25113 ΔsbmA
[29] = tested on: Pseudomonas syringae pv. syringae EPS 94
[30] = tested on: Xanthomonas fragariae Xf349-9A
[31] = tested on: Xanthomonas arboricola pv. pruni CFBP 5563
[32] = tested on: Erwinia amylovora PMV 6076
[33] = tested on: Pseudomonas syringae pv. actinidiae Psa3700.1.1
[34] = tested on: Xanthomonas campestris pv. Vesicatoria 2133-2

Structure (SMILES): CC[C@H](C)[C@H](NC(=O)CNC(=O)[C@@H](NC(=O)[C@H](CCCCN)NC(=O)[C@@H](NC(=O)[C@H](CCCCN)NC(=O)[C@H](CCCCN)NC(=O)[C@H](CC(=O)O)NC(=O)CNC(=O)[C@H](C)N)[C@@H](C)CC)[C@@H](C)CC)C(=O)N[C@@H](CC(N)=O)C(=O)NCC(=O)N[C@@H](Cc1ccccc1)C(=O)NCC(=O)N[C@@H](CCCN=C(N)N)C(=O)N[C@H](C(=O)NCC(=O)N[C@@H](CCCN=C(N)N)C(=O)N[C@@H](CC(C)C)C(=O)O)[C@@H](C)CC [AGDKKIKIGINGFGRIGRL]
MIC [1]: 31.8 µM (≈ 64 µg/mL)
MIC [2]: ≥ 254 µM
MIC [3]: ≥ 254 µM
MIC [4]: > 254 µM
MIC [5]: 254 µM (≈ 512 µg/mL)

Structure (SMILES): CC[C@H](C)[C@H](NC(=O)[C@H](CCCCN)NC(=O)CNC(=O)[C@@H]1CCCN1C(=O)[C@H](Cc1cnc[nH]1)NC(=O)[C@H](CC(C)C)NC(=O)[C@H](CC(C)C)NC(=O)[C@H](Cc1ccc(O)cc1)NC(=O)[C@H](CO)NC(=O)CNC(=O)[C@H](Cc1ccc(O)cc1)NC(=O)[C@H](CC(C)C)NC(=O)[C@H](CO)NC(=O)[C@@H](N)CS)C(=O)N[C@@H](CO)C(=O)N[C@@H](Cc1ccc(O)cc1)C(=O)N[C@@H](CO)C(=O)N[C@@H](CC(C)C)C(=O)N[C@@H](Cc1cnc[nH]1)C(=O)N[C@@H](CS)C(=O)N[C@@H](CO)C(=O)N[C@@H](CCCN=C(N)N)C(=O)O [CSLYGSYLLHPGKISYSLHCSR]
MIC [6]: 32 µM (≈ 79.5 µg/mL)
MIC [7]: 16 µM (≈ 39.8 µg/mL)
MIC [8]: 32 µM (≈ 79.5 µg/mL)
MIC [1]: 16 µM (≈ 39.8 µg/mL)
MIC [4]: 64 µM (≈ 159 µg/mL)
MIC [9]: ≥ 64 µM

Structure (SMILES): CC[C@H](C)[C@H](NC(=O)[C@H](Cc1ccccc1)NC(=O)[C@@H](N)Cc1ccccc1)C(=O)N[C@@H](Cc1ccccc1)C(=O)N[C@@H](Cc1ccccc1)C(=O)N[C@@H](Cc1ccccc1)C(N)=O [FFIFFF]
MIC (Streptococcus sanguinis): ≥ 32.6 µM
MIC (Staphylococcus aureus): 14.8 µM (≈ 12.8 µg/mL)

Structure (SMILES): CSCC[C@H](NC(=O)[C@H](Cc1ccccc1)NC(=O)[C@H](CCCCN)NC(=O)[C@H](CCCN=C(N)N)NC(=O)[C@H](Cc1ccccc1)NC(=O)CNC(=O)[C@H](CC(N)=O)NC(=O)[C@H](CCCN=C(N)N)NC(=O)[C@H](CCCCN)NC(=O)[C@@H](NC(=O)[C@H](CCCN=C(N)N)NC(=O)[C@@H](N)Cc1cnc[nH]1)C(C)C)C(=O)N[C@@H](CCCN=C(N)N)C(=O)N[C@@H](CCCN=C(N)N)C(=O)N[C@@H](CC(C)C)C(=O)N[C@@H](CCCCN)C(=O)N[C@@H](CCCCN)C(=O)N[C@@H](Cc1ccccc1)C(=O)N[C@@H](Cc1ccccc1)C(=O)N[C@@H](C)C(=O)NCC(=O)NCC(=O)O [HRVKRNGFRKFMRRLKKFFAGG]
MIC [6]: > 46.8 µM
MIC [10]: 11.7 µM (≈ 32 µg/mL)
MIC [11]: 11.7 µM (≈ 32 µg/mL)
MIC [1]: 1.1 µM (≈ 3 µg/mL)
MIC [4]: 2.92 µM (≈ 8 µg/mL)
MIC [12]: 0.731 µM (≈ 2 µg/mL)

Structure (SMILES): CC[C@H](C)[C@H](NC(=O)CNC(=O)[C@H](CCCCN)NC(=O)[C@H](Cc1ccccc1)NC(=O)[C@H](CC(C)C)NC(=O)[C@H](CCCCN)NC(=O)[C@H](CCCCN)NC(=O)[C@H](C)NC(=O)[C@H](CCCCN)NC(=O)[C@H](CCCCN)NC(=O)[C@H](Cc1c[nH]c2ccccc12)NC(=O)CNC(=O)[C@H](CCCCN)NC(=O)[C@H](C)NC(=O)[C@H](Cc1ccccc1)NC(=O)[C@@H](NC(=O)[C@H](CCCCN)NC(=O)[C@@H](NC(=O)[C@H](CC(C)C)NC(=O)[C@H](CCCCN)NC(=O)[C@@H](N)CCCCN)[C@@H](C)CC)C(C)C)C(=O)NCC(=O)O [KKLIKVFAKGWKKAKKLFKGIG]
MIC [13]: 1.88 µM (≈ 4.73 µg/mL)
MIC [14]: 1.88 µM (≈ 4.73 µg/mL)
MIC [15]: 0.47 µM (≈ 1.18 µg/mL)
MIC (Escherichia coli D31): 0.94 µM (≈ 2.37 µg/mL)

The remaining lines, values ahead:

MIC [16]: 2 µM (≈ 4.86 µg/mL)
MIC [17]: 4 µM (≈ 9.72 µg/mL)
MIC [18]: 8 µM (≈ 19.4 µg/mL)
MIC [19]: 2 µM (≈ 4.86 µg/mL)
MIC [20]: 4 µM (≈ 9.72 µg/mL)
MIC [21]: 4 µM (≈ 9.72 µg/mL)
MIC [22]: 2 µM (≈ 4.86 µg/mL)
MIC [23]: 2 µM (≈ 4.86 µg/mL)
MIC [24]: 8 µM (≈ 19.4 µg/mL)
MIC [25]: 2 µM (≈ 4.86 µg/mL)
MIC [26]: 4 µM and 8 µM
Structure (SMILES): CC[C@H](C)[C@H](NC(=O)[C@H](Cc1ccccc1)NC(=O)[C@H](CCCN=C(N)N)NC(=O)[C@@H](N)CCCCN)C(=O)N[C@@H](CCCCN)C(=O)N[C@@H](Cc1c[nH]c2ccccc12)C(=O)N[C@@H](Cc1ccc(O)cc1)C(=O)N[C@@H](CCCCN)C(=O)N[C@@H](C)C(=O)N[C@@H](Cc1c[nH]c2ccccc12)C(=O)N[C@@H](CC(N)=O)C(=O)N[C@@H](CCCCN)C(=O)N[C@@H](CCCCN)C(=O)N[C@@H](Cc1c[nH]c2ccccc12)C(=O)N[C@@H](CCCN=C(N)N)C(=O)N[C@@H](CCCCN)C(=O)N[C@@H](Cc1ccc(O)cc1)C(N)=O [KRFIKWYKAWNKKWRKY]

MIC [13]: 32 µM (≈ 91.9 µg/mL)
MIC (Escherichia coli BW25113): 2 µM (≈ 5.74 µg/mL)
MIC [27]: 1 µM (≈ 2.87 µg/mL)
MIC [28]: ≥ 32 µM
MIC [1]: 2 µM (≈ 5.74 µg/mL)
MIC [4]: 32 µM (≈ 91.9 µg/mL)
MIC [12]: 4 µM (≈ 11.5 µg/mL)
MIC [5]: > 64 µM
Structure (SMILES): CC[C@H](C)[C@H](NC(=O)[C@@H]1CCCN1C(=O)[C@@H]1CCCN1C(=O)[C@H](CCCN=C(N)N)NC(=O)[C@H](Cc1ccccc1)NC(=O)[C@@H]1CCCN1C(=O)[C@@H]1CCCN1C(=O)[C@H](Cc1ccc(O)cc1)NC(=O)[C@H](Cc1ccccc1)NC(=O)[C@@H]1CCCN1C(=O)[C@@H]1CCCN1C(=O)[C@H](CCCN=C(N)N)NC(=O)[C@@H](NC(=O)[C@@H]1CCCN1C(=O)[C@@H]1CCCN1C(=O)[C@H](CCCN=C(N)N)NC(=O)[C@H](CCCN=C(N)N)NC(=O)[C@@H](NC(=O)[C@@H]1CCCN1C(=O)[C@@H]1CCCN1C(=O)[C@H](CCCN=C(N)N)NC(=O)[C@H](Cc1ccccc1)NC(=O)[C@@H](N)CCCN=C(N)N)[C@@H](C)CC)[C@@H](C)CC)C(=O)O [RFRPPIRRPPIRPPFYPPFRPPI]

MIC [29]: ≥ 50 µM
MIC [30]: ≥ 50 µM
MIC [31]: ≥ 50 µM
MIC [32]: ≥ 50 µM
MIC [33]: ≥ 50 µM
MIC [34]: ≥ 50 µM
Structure (SMILES): CC(C)[C@H](N)C(=O)N[C@@H](Cc1c[nH]c2ccccc12)C(=O)N[C@@H](CC(N)=O)C(=O)N[C@@H](CCC(N)=O)C(=O)N1CCC[C@H]1C(=O)N[C@H](C(=O)N[C@@H](CCCN=C(N)N)C(=O)NCC(=O)N[C@@H](Cc1ccccc1)C(=O)N[C@@H](CCCCN)C(=O)N[C@H](C(=O)N[C@@H](Cc1ccc(O)cc1)C(=O)N[C@@H](CCC(=O)O)C(=O)O)C(C)C)C(C)C [VWNQPVRGFKVYE]
